How the values were obtained:
[1] = Antioxidant activity assessed as hydroxyl radical scavenging activity at 50 uM after 30 mins by Fenton reaction-induced DNA single strand breakage method; assay type: physicochemical; settings: 0.5 h
[2] = Ratio of compound IC50 to trolox IC50 for ABTS radical scavenging activity after 12 hrs by spectrophotometry
[3] = Antioxidant activity assessed as DPPH radical scavenging activity after 30 mins by spectrophotometry; assay type: physicochemical; settings: 0.5 h
[4] = Antioxidant activity assessed as ABTS radical scavenging activity after 12 hrs by spectrophotometry; assay type: physicochemical
[5] = Ratio of compound IC50 to trolox IC50 for DPPH radical scavenging activity after 30 mins by spectrophotometry
[6] = Antioxidant activity assessed as ABTS radical scavenging activity up to 1 mM after 12 hrs by spectrophotometry; assay type: physicochemical
[7] = Antioxidant activity assessed as DPPH radical scavenging activity up to 1 mM after 30 mins by spectrophotometry; assay type: physicochemical; settings: 0.5 h

Row | Compound | Activity [1] | Ratio IC50 [2] | Activity [3] | Activity [4] | Ratio IC50 [5] | Activity [6] | Activity [7]
1 | CCOC(=O)/C=C/c1ccc(O)c(O)c1 [ETHYL CAFFEATE] | Active | 10.6 | Dose-dependent effect | Dose-dependent effect | 6.3 |  | 
2 | O=C(/C=C/c1ccc(O)cc1)OC/C=C/c1ccccc1 |  | > 500 |  |  | > 500 | Not Active | Not Active
3 | Cc1c(C)c2c(c(C)c1O)CCC(C)(C(=O)O)O2 (stereo not given) |  | 1 |  |  | 1 |  | 
4 | COc1cc(/C=C/C(=O)OCc2ccccc2)ccc1O [BENZYL FERULATE] | Not Active | 24.8 | Dose-dependent effect | Dose-dependent effect | 92.1 |  | 
5 | COc1cc(/C=C/C(=O)OCC=C(C)C)ccc1O | Not Active | 23.1 | Dose-dependent effect | Dose-dependent effect | 105 |  | 
6 | O=C(/C=C/c1ccc(O)c(O)c1)OCc1ccccc1 [BENZYL CAFFEATE] | Active | 3.42 | Dose-dependent effect | Dose-dependent effect | 3.86 |  | 
7 | O=C(/C=C/c1ccccc1)OCCc1ccccc1 [PHENETHYL CINNAMATE] |  | > 500 |  |  | > 500 | Not Active | Not Active
8 | O=C(/C=C/c1ccccc1)OC/C=C/c1ccccc1 |  | > 500 |  |  | > 500 | Not Active | Not Active
9 | O=C(/C=C/c1ccc(O)c(O)c1)OCCc1ccccc1 [CAFFEIC ACID PHENETHYL ESTER] | Active | 6.3 | Dose-dependent effect | Dose-dependent effect | 0.46 |  | 
10 | COc1ccc(/C=C/C(=O)OC/C=C/c2ccccc2)cc1OC |  | > 500 |  |  | > 500 |  | 
11 | O=C(/C=C/c1ccc(O)cc1)OCc1ccccc1 |  | > 500 |  |  | > 500 | Not Active | Not Active

Source: ChEMBL document CHEMBL3351369, “Phenylpropanoid acid esters from Korean propolis and their antioxidant activities” (Bioorg Med Chem Lett, 2014)
